# Columns and labels:
# Hepa 1-6 cells = test: Mutagenic repair (% indels) after albumin-specific ZFN, Surveyor/CelI assay and clone sequencing; type: cell-based
# Method: In particular, the inhibitors Olaparib (PARP1-inhibitor) and NU7441 (DNA-PKcs inhibitor) were added 3 hours after mRNA delivery at concentration of 5 μM and 3-5 μM respectively. As a control, the ATM inhibitor KU55933 was added at a concentration of 10 μM (ATM has no direct role in DSB repair but is related to DNA-PKcs). After 15 hours, fresh inhibitors were added to the medium to counteract the decay of the inhibitors in the cell culture medium.
# After a further 54 hours, cells were harvested and genomic DNA was prepared for Day 3 analysis by Surveyor™/CelI assay and DNA sequencing. For DNA sequencing the genomic target region of the ZFN was amplified by PCR, topo-cloned and 96 individual clones were sequenced. The sequences were analyzed and the results used to divide the clones into groups by the genome type (e.g. wild type genomes, those with insertions and/or deletions, and those with other modifications). At Day 3 harvest about a third of the cells were re-seeded in fresh medium without inhibitors and were grown until day 10 when they were harvested and analyzed by Surveyor™/CelI assay.
# K562 cells [1] = test: ZFN-mediated targeted integration of ssOligo at CCR5 locus, RFLP assay and 96 colony sequencing; type: cell-based, human; settings: Day 3; for effect on targeted integration: KU55933 10 μM, Olaparib 5 μM added to DNA-PKcs inhibitor
# Method: K562 cells were transfected by Amaxa® electroporation system with plasmid DNA encoding a CCR5-specific ZFN pair (see, U.S. Pat. No. 7,951,925) and a single-stranded oligonucleotide (ssOligo) (120 bp) which has homology to the target region and harbors a unique restriction site (Avr II). The cells then were treated twice with small molecule inhibitors described in Example 1 (outlined in FIG. 2A). In particular, the inhibitors Olaparib (PARP1/2-inhibitor) and NU7441 (DNA-PKcs-inhibitor) were added 5 hours after the ZFN-encoding DNA delivery at concentration of 5 μM and 3 μM, respectively. As a control, the ATM inhibitor KU55933 was added at a concentration of 10 μM. After 15 hours, fresh inhibitors were added to the medium to counteract the decay of the inhibitors in the cell culture medium. After a further 54 hours, the cells were harvested and genomic DNA was prepared for Day 3 analysis by Surveyor™/CelI assay, RFLP analysis and DNA sequencing.
# The RFLP assay was carried out by digestion of the PCR amplified target locus with a restriction enzyme cutting in the integrated ssOligo. For DNA sequencing, the genomic target region of the ZFN was amplified by PCR, topo-cloned and 96 individual clones were sequenced.
# K562 cells [2] = test: Targeted integration of AAVS1 oligo with double-stranded cleaving or nickase ZFNs, HindIII digestion; type: cell-based, human; settings: NU1025 for 24 hr or 48 hr
# Method: In another experiment, K562 cells were treated with the PARP1 inhibitor NU1025. Briefly, two million K562 cells were nucleofected with 5 μg of double-stranded cleaving or nickase ZFNs specific for AAVS1 (U.S. Pat. No. 8,110,379) with or without 3 μl of an antisense AAVS1 oligo (100 μM). The cells were immediately treated with PARP inhibitor NU1025 after nucleofection for 24 hr or 48 hr. All cells were harvested 48 hr after nucleofection. 1.0 μg of PCR DNA was subjected to HindIII digestion.
# CHO K1 cells = test: Targeted integration of double stranded donor at glutamine synthetase (GS) locus, RFLP; type: cell-based
# Method: The use of DNA PKcs inhibitors during insertion of a double stranded donor in CHO K1 cells was also tested. For this experiment, a donor that was delivered either via a plasmid (FIG. 4E) or via a PCR fragment (FIG. 4F). Briefly, CHO K1 cells were transfected with Nucleofector Kit V on an Amaxa® instrument. The transfection components and their dosages were as follows: one million CHO K1 cells suspended in 100 μl of Nucleofection™ Solution V; 4 μg each of two in vitro transcribed ZFN mRNAs engineered for inducing DSBs at the glutamine synthetase locus (GS) in CHO cells (see, e.g., U.S. Pat. No. 8,153,399); 2 μg (FIG. 4E) or 4 μg (FIG. 4F) of in vitro transcribed CHO or human Rad52 mRNA; 10 μg of plasmid donor (3.8 kb) or PCR fragment donor (1.1 kb). The plasmid donor and the PCR fragment donor both carried the same target integration sequence, containing two 500 bp homologous arms, two loxP sites, and a multiple cloning site.
# DNA-PKcs inhibitor NU7026 or NU7441 was added into 2 ml per well of pre-warmed culture medium in a 6-well plate at concentration of 20 μM or 16 respectively, before transfected cells were added into the medium. Cells were grown in the inhibitor-containing medium for 24 hours at 37° C. and 5% CO2. The medium was then replaced with fresh medium without inhibitor. DMSO was used as inhibitor blank control. […]
# K562 cells [3] = test: Nickase ZFN with ssOligo at CCR5, Surveyor/CelI assay and sequencing; type: cell-based, human
# Source text: K562 cells were transfected by Amaxa electroporation system with plasmid DNA encoding a CCR5-specific ZFN pair (see, U.S. Pat. No. 7,951,925) and a single-stranded oligonucleotide (ssOligo) (120 bp) which has homology to the target region and harbors a unique restriction site (Avr II). […] Due to the less deleterious nature of this kind of DNA damage, recombination events mediated by ssDNA breaks may be preferable over DSBs. However, the frequency of gene modification mediated via ssDNA breaks is very low. DNA-PKcs and PARP inhibitors were used in an attempt to increase the frequency of gene modification mediated via ssDNA breaks (“nicks”).
# Briefly, the transfected K562 cells were treated twice with either PARP1/2 inhibitor (Olaparib-5 μM) or DNA-PKcs inhibitor (NU7441-3 μM) 5 hours and 15 hours after transfection to counteract the decay of the inhibitors in the cell culture medium. After a further 54 hours, cells were harvested and genomic DNA was prepared for Day 3 analysis by Surveyor™/CelI assay, RFLP analysis and DNA sequencing as described in Example 1. The RFLP assay was carried out by digestion of the PCR amplified target locus with a restriction enzyme cutting in the integrated ssOligo. For DNA sequencing, the genomic target region of the ZFN was amplified by PCR, topo-cloned, and 96 individual clones were sequenced.
# CD34+ cells = test: Targeted integration of ssOligo at CCR5 in primary cells, clone sequencing; type: cell-based; settings: NU7441 3 μM, Day 3; at the expense of 5-nucleotide duplications and deletions
# Method: Specifically, donor derived CD34+ cells were transfected 3 days after culture in medium suppressing differentiation. This was carried out by the BTX electroporation system with mRNA DNA encoding a CCR5-specific ZFN pair and a ssOligonucleotide (120 bp) which has homology to the target region and harbors a unique restriction site (Avr II). The cells were then treated twice with small molecule inhibitors as described in Example 1. In particular, the inhibitor NU7441 (DNA-PKcs-inhibitor) was added 3 hours after mRNA delivery at a concentration of 3 μM. After 15 hours, fresh inhibitors were added to the medium to counteract the decay of the inhibitors in the cell culture medium. After a further 54 hours, cells were harvested and genomic DNA was prepared for Day 3 analysis by DNA sequencing. For DNA sequencing the genomic target region of the ZFN was amplified by PCR, topo-cloned, and 96 individual clones were sequenced.
# HEK293 cells = test: Targeted integration of ssDNA oligo donor at AAVS1 locus, RFLP; type: cell-based, human; settings: NU7441 10 μM
# Method: We next used the inhibitors to measure their effect on targeted integration of single-stranded donors. Briefly, HEK293 and MCF7 cells were transfected with Nucleofector Kit V and MCF10A cells were transfected with Nuleofector™ Kit L on an Amaxa® instrument. The transfection components and their dosages were as follows: 0.8 million cells suspended in 100 μL of nucleofection solution; 3 μg each of two in vitro transcribed ZFN mRNAs engineered for inducing DSBs at the AAVS1 locus in human cells (see, e.g., U.S. Pat. No. 8,110,379); 0.3 nmol of a 100-nt ssDNAoligo donor. The oligo donor carried a HindIII restriction site at the position of 20 bp upstream of the ZFN cleavage site, and the HindIII site was used as marker for target integration analysis by RFLP. DNA-PKcs inhibitor NU7441 was added into 2 ml per well of pre-warmed culture medium in a 6-well plate at concentration of 10 μM for HEK293 and MCF7, and 15 or 20 μM for MCF10A before transfected cells were added into the medium. Cells were grown in the inhibitor-containing medium for 24 hours at 37° C. and 5% CO2. The medium was then replaced with fresh medium without inhibitor. DMSO was used as inhibitor blank control. For genomic DNA preparation, HEK293 and MCF10A cells were harvested 3 days after transfection, and MCF7 cells were harvested 5 days after nucleofection. […]
# K562 cells [4] = test: TALEN-mediated targeted integration at human CCR5 locus, deep sequencing; type: cell-based
# Method: See, e.g., U.S. Pat. No. 8,586,526. K562 cells were transfected by AMAXA with plasmid DNA encoding either hCCR5 TALENs or ZFNs and then the cells were treated with DMSO or DNA-PKcs inhibitor NU7441. Cells were harvested at Day 3 and Day 10 and genomic PCR was analyzed after PCR by deep sequencing.
smiles,measurement,setting,value
O=c1cc(-c2cccc3c2Sc2ccccc2S3)oc(N2CCOCC2)c1 [KU55933],effect on mutagenic repair,Hepa 1-6 cells; KU55933 10 μM control,slight decrease
same,effect on targeted integration,K562 cells [1],no effect
Cc1nc2c(O)cccc2c(=O)[nH]1 [NU1025],integration of AAVS1 oligo,K562 cells [2],detectable integration
O=c1cc(N2CCOCC2)oc2c1ccc1ccccc12 [NU7026],plasmid donor-based target integration,"CHO K1 cells; NU7026 alone, 20 μM",no apparent increase
O=c1cc(N2CCOCC2)oc2c(-c3cccc4c3sc3ccccc34)cccc12 [NU7441],CelI signal (indels),"K562 cells [3]; Nickase ZFNs co-transfected with ssOligo, NU7441 3 μM, Olaparib 5 μM",7%
same,clones with non-WT sequence (perfect targeted integration of the ssOligo),K562 cells [3]; sequencing of 96 clones,one of 96
same,targeted integration,CD34+ cells,slight increase
same,targeted integration of a single stranded donor,HEK293 cells,increased
same,increase of PCR fragment donor-based target integration,CHO K1 cells; PCR fragment donor,about 5 fold
same,increase of mutagenic repair,"Hepa 1-6 cells; Day 10, after withdrawal of inhibitors",about 2 fold
same,increase of targeted integration,"K562 cells [1]; NU7441 3 μM, RFLP and 96 colony sequencing",2-3 fold
same,TALEN-mediated targeted integration,"K562 cells [4]; Day 3, vs DMSO",up to two fold
same,share of all genome editing events that are targeted integrations,"K562 cells [4]; TALENs, after NU7441 treatment",more than half
same,unwanted mutagenic events (Indels),"K562 cells [4]; TALENs, after NU7441 treatment",drastically reduced
O=C(c1cc(Cc2n[nH]c(=O)c3ccccc23)ccc1F)N1CCN(C(=O)C2CC2)CC1 [Olaparib],effect on targeted integration,K562 cells [1],did not further increase
